Results from US12653840B2, “Methods for production of platelets from pluripotent stem cells and compositions thereof” (Astellas Institute for Regenerative Medicine, priority 2012, dated 2026).
“Also recorded” adds a separate entry of the source.

Tests used:
GATA-1 = assay: Relative quantitative mRNA analysis on day 6+4; format: cell-based, human; details: 0.1 and 0.25 microM
Excerpt: (§1) FIG. 32. Relative quantitative analysis of mRNA of c-myc and GATA-1 on day 6+4 as a function of increasing dose of iBET-151. iBET concentrations: 0 (left bar), 0.1 microM (middle bar), 0.25 microM (right bar) for each triplet.

c-myc = assay: Relative quantitative mRNA analysis on day 6+4; format: cell-based, human; details: 0.1 and 0.25 microM
Excerpt: as §1

[1] = tested on: cells undergoing in vitro megakaryopoiesis; assay: iBET-151 in PVE-HE to MLP differentiation culture, harvest at day 6+4; format: cell-based, human
Method: Megakaryocyte progenitor (MLP) numbers harvested at day 6+4 (i.e., day 10 of differentiation) as a function of increasing dose of iBET-151 (in μM). iBET is added to the culture at the 6+3 day time frame, and MLPs are exposed to iBET for a period of about 24 hours prior to their harvest. iBET concentrations: 0 (left bar), 0.1 microM (middle bar), 0.25 microM (right bar). […] CD14+ cell purity in cell population harvested at day 6+4 as a function of increasing dose of iBET-151. iBET concentrations: 0 (left bar), 0.1 microM (middle bar), 0.25 microM (right bar).

[2] = tested on: human and murine MLL-fusion leukemic cell lines; details: through induction of early cell cycle arrest and apoptosis; cited from earlier work
[3] = tested on: iPS derived megakaryocytes; assay: Platelet formation in static culture with MMP inhibitors; format: cell-based, human
Excerpt: FIG. 27. Platelet purity as a result of static culture in the presence of MMP8 specific inhibitor MMP8-I (second bar), pan-MMP inhibitor GM6001 (third bar), or the combination of MMP8-I and GM6001 (fourth bar). The MMP8-I is (3R)-(+)-[2-(4-Methoxybenzenesulfonyl)-1,2,3,4-tetrahydroisoquinoline-3-hydroxamate], and it is commercially available from Millipore. The first bar is the control.
FIG. 28. Platelets numbers as a result of static culture in the presence of MMP8 specific inhibitor MMP8-I (second bar), pan MMP inhibitor GM6001 (third bar), or the combination of MMP8-I and GM6001 (fourth bar). The first bar is the control.
The peak of platelet production is determined by measuring platelet content in the culture, for example on a daily basis for several days. It is typically 4-7 days after the beginning of the MLP differentiation culture period, although it may be longer or it may be shifted.

CD42b = details: reported; cited from earlier work
MKs derived from HA-iPS = assay: Platelet generation from MKs under constant shear force in a microfluidic device; format: cell-based, human
Method: Matured MKs, derived from HA-iPS and MA09 hES lines, were used. Equal numbers of MKs suspended in MK-specific medium were loaded into a microfluidic device in the presence or absence of 20 μM MMP inhibitor GM6001. Constant shear force was applied to the MKs throughout the culture period. MK-medium downstream of MKs was collected at 30 minute intervals for a period of 6 hours. Platelet number and purity (i.e., percentage of total cells that are CD41a^+CD42b^+) in the collected media were measured using flow cytometer.
FIGS. 22-24 provide the results of platelet generation from MKs derived from HA-iPS. The platelets were generated under a constant shear force defined by a flow rate of […] μl/min. […] Purity is expressed at the percentage of total harvested cells that are CD41a+CD42b+.

[4] = tested on: developing mouse platelet thrombus; assay: In vivo thrombus formation after laser-induced cremaster arteriolar wall injury, intravital microscopy; parameters: species or system macrophage-depleted NOD/SCID mice; details: platelets pretreated with ReoPro
Method: Third, hiPSC-PLTs were analyzed for functionality using an in vivo assay system measuring thrombus formation in macrophage-depleted NOD/SCID mice. Briefly, intravital microscopy of cremaster muscle arterioles was performed as previously described (Cell Research 2011 21:530-45). Macrophage-depleted NOD/SCID mice were anesthetized by intraperitoneal injection of ketamine (125 mg/kg) and xylazine (25 mg/kg). A tracheal tube was inserted and the mouse was placed on a thermo-controlled blanket. After incision of the scrotum, the cremaster muscle was exteriorized onto an intravital microscopy tray. The muscle preparation was superfused with thermo-controlled (37° C.) and aerated (95% N2, 5% CO2) bicarbonate-buffered saline throughout the experiment. The cremaster muscle arteriolar wall was injured by micropoint laser ablation using a Micropoint Laser System (Photonics Instruments). […] Fluorescence and brightfield images were recorded using an Olympus BX61W microscope with a 60 x/1.0 NA water immersion objective and a high speed camera (Hamamatsu C9300) through an intensifier (Video Scope International). Data were collected for 5 min following vessel wall injury and analyzed using Slidebook v5.0 (Intelligent Imaging Innovations).

## COc1cc2c(cc1-c1c(C)noc1C)ncc1[nH]c(=O)n([C@H](C)c3ccccn3)c12 [i-BET-151]
GATA-1
  GATA1 gene expression (mRNA): up-regulated
c-myc
  c myc gene expression (mRNA): dose:-dependent inhibition
[1]; 0.1 and 0.25 microM, day 6+4
  number of CD14+ myeloid cells: dose-dependent decrease
[1]; high dose
  apoptosis: triggers massive apoptosis
[1]; lower doses in the micromolar (or submicromolar) range, 0.1 and 0.25 microM, about 24 hours
  numbers of MK progenitors: increased numbers
[2]
  efficacy against MLL-fusion leukemic cell lines: profound efficacy

## COc1ccc(S(=O)(=O)N2Cc3ccccc3C[C@@H]2C(=O)NO)cc1 [MMP8 specific inhibitor, (3R)-(+)-[2-(4-Methoxybenzenesulfonyl)-1,2,3,4-tetrahydroisoquinoline-3-hydroxamate]]
[3]; added at peak of platelet production of MKs, static culture, control 43.7%
  purity of iPS-derived platelets (CD41a+CD42b+): 65.5%
[3]; comparative study of several specific MMP inhibitors
  potency in protecting platelet function: more potency than GM6001
[3]; static culture
  CD41a+CD42b+ platelets produced, compared to GM6001: Significantly more
  purity, more than obtained from GM6001-treated cultures: approximately 10%

## CNC(=O)[C@H](Cc1c[nH]c2ccccc12)NC(=O)[C@@H](CC(=O)NO)CC(C)C [GM6001]
CD42b
  CD42b shedding from platelets: inhibit CD42b shedding
MKs derived from HA-iPS; 20 μM, added at beginning of culture, constant shear force, vs DMSO
  platelet purity (percentage of total harvested cells that are CD41a+CD42b+): significantly improved
MKs derived from HA-iPS; 20 μM, constant shear force, vs DMSO
  platelet yield / platelet numbers: significantly improved; also recorded: significantly more platelets

## dextran
MKs derived from HA-iPS; 8% dextran added to increase viscosity of culture medium, with GM6001, shear force
  platelet formation: negative impact

B1: ReoPro: Fab fragment of a human-murine chimeric monoclonal antibody that binds specifically to αIIbβIII and inhibits platelet function (antibody, chains of the INN, looked up, V domains shown)
VH: EVQLQQSGTVLARPGASVKMSCEASGYTFTNYWMHWVKQRPGQGLEWIGAIYPGNSDTSYIQKFKGKAKLTAVTSTTSVYMELSSLTNEDSAVYYCTLYDGYYVFAYWGQGTLVTVSA
VL: EIVLTQSPVTLSVTPGDSVSLSCRASRDISNNLHWFQQTSHESPRLLIKYASQSMSGIPSRFSGSGSGTDFTLSINSVETEDFGMYFCQQTNSWPYTFGGGTKLEIK
modifications: Fab
[4]
  number of platelets bound to / incorporating in the thrombus after ReoPro pretreatment: inhibited; also recorded: markedly reduced
